Results reported in patent US20230019236A1, “PROTEIN TYROSINE PHOSPHATASE INHIBITORS AND METHODS OF USE THEREOF” (Calico Life Sciences LLC, priority 2019, published 2023).

target: T1, His tagged PTPN2 (TC45) protein (Homo sapiens, UniProt P17706); assay: Mobility Shift Assay used to determine potency of PTPN2 inhibitors; format: biochemical; details: Table 2; read-out: PTPN2 MSA IC50
T1 construct: made in house
T1 sequence (P17706 with tags, fused parts or gaps isoform P17706-2): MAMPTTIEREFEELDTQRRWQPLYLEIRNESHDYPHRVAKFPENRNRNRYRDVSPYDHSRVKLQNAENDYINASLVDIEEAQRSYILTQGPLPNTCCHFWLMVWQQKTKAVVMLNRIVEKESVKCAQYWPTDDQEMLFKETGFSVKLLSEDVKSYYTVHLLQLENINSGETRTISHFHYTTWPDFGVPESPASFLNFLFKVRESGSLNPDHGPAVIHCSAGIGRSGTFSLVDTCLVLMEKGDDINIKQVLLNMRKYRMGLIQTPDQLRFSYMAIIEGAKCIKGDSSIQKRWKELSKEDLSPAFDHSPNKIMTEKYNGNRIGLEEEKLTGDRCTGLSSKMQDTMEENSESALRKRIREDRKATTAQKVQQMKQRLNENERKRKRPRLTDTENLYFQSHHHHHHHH
Method: Example 292: Mobility Shift Assay used to determine potency of PTPN2 inhibitors
Compound activity was determined using in house His tagged PTPN2 (TC45) protein (SEQ ID NO: 1) in an in vitro enzymatic reaction. The enzymatic assay used to determine activity was a mobility shift assay using a LabChip EZ Reader by Caliper Life Sciences. The enzymatic reaction was carried out in assay buffer (50 mM HEPES pH 7.5, 1 mM EGTA, 10 mM EDTA, 0.01% Tween® 20, and 2 mM DTT). The compounds were dispensed on a white 384 well ProxiPlate™ (PerkinElmer Catalog#6008289) plate using the Labcyte Echo at varying concentrations (12 point, 1:3 dilution). The enzyme (at 0.5 nM) was incubated with compound for 10 minutes at room temperature. Then the substrate (phosphorylated insulin receptor probe sequence: ((OG488)—{NH—CH2—CH2—O—CH2—CH2—O—CH2—CO)—T—R—D—I—(PY)—E—T—D—Y—Y—R—K—K—NH2) (SEQ ID NO: 2) was added at 2 μM to the plates and incubated for another 10 minutes at room temperature. Finally, a quench solution (water and 4-bromo-3-(2-oxo-2-propoxyethoxy)-5-(3-{[1-(phenylmethanesulfonyl)piperidin-4-yl]amino}phenyl)thiophene-2-carboxylic acid) was added to the plates, which were then run on the EZ Reader (excitation 488 nm, emission 530 nm) to measure % conversion (the amount of phosphorylated substrate which was de-phosphorylated by PTPN2). […] The % inhibition was then used to calculate the IC50 values.

Structure (SMILES) | IC50 [µM]
CC1(O)CN(CCOc2ccc3cc(O)c(N4CC(=O)NS4(=O)=O)c(F)c3c2)C1 [Compound 380, 5-{1-fluoro-3-hydroxy-7-[2-(3-hydroxy-3-methylazetidin-1-yl)ethoxy]naphthalen-2-yl}-1λ^6,2,5-thiadiazolidine-1,1,3-trione] | 0.001 to 0.01
CC1(CCOc2cc3c(F)c(N4CC(=O)NS4(=O)=O)c(O)cc3cc2O)CC1 [Compound 386, 5-{1-fluoro-3,6-dihydroxy-7-[2-(1-methylcyclopropyl)ethoxy]naphthalen-2-yl}-1λ^6,2,5-thiadiazolidine-1,1,3-trione] | < 0.001
CCN(C)CCOc1ccc2cc(O)c(N3CC(=O)NS3(=O)=O)c(F)c2c1 [Compound 388, 5-(7-{2-[ethyl(methyl)amino]ethoxy}-1-fluoro-3-hydroxynaphthalen-2-yl)-1λ^6,2,5-thiadiazolidine-1,1,3-trione] | 0.001 to 0.01
O=C1CN(c2c(O)cc3ccc(OCCCC(F)(F)CO)cc3c2F)S(=O)(=O)N1 [Compound 375, 5-{7-[(4,4-difluoro-5-hydroxypentyl)oxy]-1-fluoro-3-hydroxynaphthalen-2-yl}-1λ^6,2,5-thiadiazolidine-1,1,3-trione] | < 0.001
O=C1CN(c2c(O)cc3ccc(OCCC45CC(C4)C5)cc3c2F)S(=O)(=O)N1 [Compound 378, 5-{7-[2-(bicyclo[11.1.1]pentan-1-yl)ethoxy]-1-fluoro-3-hydroxynaphthalen-2-yl}-1λ^6,2,5-thiadiazolidine-1,1,3-trione] | < 0.001
O=C1CN(c2c(O)cc3ccc(OCC45CC(CCO)(C4)C5)cc3c2F)S(=O)(=O)N1 [Compound 377, 5-(1-fluoro-3-hydroxy-7-{[3-(2-hydroxyethyl)bicyclo[1.1.1]pentan-1-yl]methoxy}naphthalen-2-yl)-1λ^6,2,5-thiadiazolidine-1,1,3-trione] | 0.001 to 0.01
O=C1CN(c2c(O)cc3ccc(OCCN4CC(F)(F)C4)cc3c2F)S(=O)(=O)N1 [Compound 385, 5-{7-[2-(3,3-difluoroazetidin-1-yl)ethoxy]-1-fluoro-3-hydroxynaphthalen-2-yl}-1λ^6,2,5-thiadiazolidine-1,1,3-trione] | 0.001 to 0.01
O=C1CN(c2c(O)cc3ccc(OCCN4CCC(F)(F)C4)cc3c2F)S(=O)(=O)N1 [Compound 383, 5-{7-[2-(3,3-difluoropyrrolidin-1-yl)ethoxy]-1-fluoro-3-hydroxynaphthalen-2-yl}-1λ^6,2,5-thiadiazolidine-1,1,3-trione] | 0.001 to 0.01
O=C1CN(c2c(O)cc3ccc(OCCC4COC4)cc3c2F)S(=O)(=O)N1 [Compound 373, 5-{1-fluoro-3-hydroxy-7-[2-(oxetan-3-yl)ethoxy]naphthalen-2-yl}-1λ^6,2,5-thiadiazolidine-1,1,3-trione] | 0.001 to 0.01
NCC1(CCOc2ccc3cc(O)c(N4CC(=O)NS4(=O)=O)c(F)c3c2)CCC1 [Compound 379, 5-(7-{2-[1-(aminomethyl)cyclobutyl]ethoxy}-1-fluoro-3-hydroxynaphthalen-2-yl)-1λ^6,2,5-thiadiazolidine-1,1,3-trione] | 0.001 to 0.01
O=C1CN(c2c(O)cc3ccc(OCCCC(F)F)cc3c2F)S(=O)(=O)N1 [Compound 372, 5-[7-(4,4-difluorobutoxy)-1-fluoro-3-hydroxynaphthalen-2-yl]-1λ^6,2,5-thiadiazolidine-1,1,3-trione] | < 0.001
C[C@](O)(CO)CCOc1cc2c(F)c(N3CC(=O)NS3(=O)=O)c(O)cc2cc1O [Compound 387, 5-{7-[(3R)-3,4-dihydroxy-3-methylbutoxy]-1-fluoro-3,6-dihydroxynaphthalen-2-yl}-1λ^6,2,5-thiadiazolidine-1,1,3-trione] | < 0.001
COCCN(C)CCOc1ccc2cc(O)c(N3CC(=O)NS3(=O)=O)c(F)c2c1 [Compound 382, 5-(1-fluoro-3-hydroxy-7-{2-[(2-methoxyethyl)(methyl)amino]ethoxy}naphthalen-2-yl)-1λ^6,2,5-thiadiazolidine-1,1,3-trione] | 0.01 to 0.1
O=C1CN(c2c(O)cc3ccc(OCCC4(CO)CCC4)cc3c2F)S(=O)(=O)N1 [Compound 374, 5-(1-fluoro-3-hydroxy-7-{2-[1-(hydroxymethyl)cyclobutyl]ethoxy}naphthalen-2-yl)-1λ^6,2,5-thiadiazolidine-1,1,3-trione] | < 0.001
O=C1CN(c2c(O)cc3ccc(OCCN4Cc5ccccc5C4)cc3c2F)S(=O)(=O)N1 [Compound 384, 5-{7-[2-(1,3-dihydro-2H-isoindol-2-yl)ethoxy]-1-fluoro-3-hydroxynaphthalen-2-yl}-1λ^6,2,5-thiadiazolidine-1,1,3-trione] | 0.001 to 0.01
O=C1CN(c2c(O)cc3ccc(C4=CCN(CCC5CC5)C4)cc3c2F)S(=O)(=O)N1 [Compound 244, 5-{7-[1-(2-cyclopropylethyl)-2,5-dihydro-1H-pyrrol-3-yl]-1-fluoro-3-hydroxynaphthalen-2-yl}-1λ^6,2,5-thiadiazolidine-1,1,3-trione] | 0.01 to 0.1
O=C1CN(c2c(O)cc3ccc(OCCNCC(F)(F)F)cc3c2F)S(=O)(=O)N1 [Compound 390, 5-(1-fluoro-3-hydroxy-7-{2-[(2,2,2-trifluoroethyl)amino]ethoxy}naphthalen-2-yl)-1λ^6,2,5-thiadiazolidine-1,1,3-trione] | 0.001 to 0.01
NCC12CC(CCOc3ccc4cc(O)c(N5CC(=O)NS5(=O)=O)c(F)c4c3)(C1)C2 [Compound 376, 5-(7-{2-[3-(aminomethyl)bicyclo[11.1.1]pentan-1-yl]ethoxy}-1-fluoro-3-hydroxynaphthalen-2-yl)-1λ^6,2,5-thiadiazolidine-1,1,3-trione] | 0.001 to 0.01
CN(CCC#N)CCOc1ccc2cc(O)c(N3CC(=O)NS3(=O)=O)c(F)c2c1 [Compound 389, 3-[(2-{[8-fluoro-6-hydroxy-7-(1,1,4-trioxo-1λ^6,2,5-thiadiazolidin-2-yl)naphthalen-2-yl]oxy}ethyl)(methyl)amino]propanenitrile] | 0.001 to 0.01
O=C1CN(c2c(O)cc3ccc(OCCN4CCC[C@H]4C(F)(F)F)cc3c2F)S(=O)(=O)N1 [Compound 381, 5-(1-fluoro-3-hydroxy-7-{2-[(2S)-2-(trifluoromethyl)pyrrolidin-1-yl]ethoxy}naphthalen-2-yl)-1λ^6,2,5-thiadiazolidine-1,1,3-trione] | 0.001 to 0.01

target: T2, His tagged full-length PTP1B protein (Homo sapiens, UniProt P18031); assay: Mobility Shift Assay (MSA) used to determine potency of PTP1B inhibitors; format: biochemical; details: Table 2
T2 construct: made in house
T2 sequence (P18031 with tags, fused parts or gaps): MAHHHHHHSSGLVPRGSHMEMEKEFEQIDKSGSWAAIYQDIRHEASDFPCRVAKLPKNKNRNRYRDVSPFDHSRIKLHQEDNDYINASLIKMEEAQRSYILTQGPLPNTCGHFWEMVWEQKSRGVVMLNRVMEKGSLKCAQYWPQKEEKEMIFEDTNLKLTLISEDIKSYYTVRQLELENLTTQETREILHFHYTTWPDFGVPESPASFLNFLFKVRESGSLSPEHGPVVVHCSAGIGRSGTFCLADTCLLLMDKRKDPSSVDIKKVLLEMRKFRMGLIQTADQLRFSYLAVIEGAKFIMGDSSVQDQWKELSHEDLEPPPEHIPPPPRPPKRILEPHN
Method: The enzymatic assay used to determine activity is a mobility shift assay using a LabChip EZ Reader by Caliper Life Sciences. The enzymatic reaction was carried out in assay buffer (50 mM HEPES pH 7.5, 1 mM EGTA, 10 mM EDTA, 0.01% Tween® 20, and 2 mM DTT). […] The enzyme (at 0.5 nM) was incubated with compound for 10 minutes at room temperature. […] The % inhibition was then used to calculate the IC50 values.

IC50 [µM] | Structure (SMILES)
> 0.1 | CC(C)Oc1ccc2cc(O)c(N3CC(=O)NS3(=O)=O)c(F)c2c1 [Compound 279, 5-{1-fluoro-3-hydroxy-7-[(propan-2-yl)oxy]naphthalen-2-yl}-1λ^6,2,5-thiadiazolidine-1,1,3-trione]
0.01 to 0.1 | O=C1CN(c2c(O)cc3ccc(CNCC4CC4)cc3c2F)S(=O)(=O)N1 [Compound 161, 5-(7-{[(cyclopropylmethyl)amino]methyl}-1-fluoro-3-hydroxynaphthalen-2-yl)-1λ^6,2,5-thiadiazolidine-1,1,3-trione]
> 0.1 | N#CCOc1ccc2cc(O)c(N3CC(=O)NS3(=O)=O)c(F)c2c1 [Compound 203, {[8-fluoro-6-hydroxy-7-(1,1,4-trioxo-1λ^6,2,5-thiadiazolidin-2-yl)naphthalen-2-yl]oxy}acetonitrile]
0.01 to 0.1 | N#CCc1ccc2cc(O)c(N3CC(=O)NS3(=O)=O)c(F)c2c1 [Compound 228, [8-fluoro-6-hydroxy-7-(1,1,4-trioxo-1λ^6,2,5-thiadiazolidin-2-yl)naphthalen-2-yl]acetonitrile]
0.001 to 0.01 | COCC1(CCOc2ccc3cc(O)c(N4CC(=O)NS4(=O)=O)c(F)c3c2)CC1 [Compound 160, 5-(1-fluoro-3-hydroxy-7-{2-[1-(methoxymethyl)cyclopropyl]ethoxy}naphthalen-2-yl)-1λ^6,2,5-thiadiazolidine-1,1,3-trione]
